According to patent US20170275287A1, “NOVEL N2, N4, N7, 6-TETRASUBSTITUTED PTERIDINE-2,4,7-TRIAMINE AND 2, 4, 6, 7-TETRASUBSTITUTED PTERIDINE COMPOUNDS AND METHODS OF SYNTHESIS AND USE THEREOF” (Janus Biotherapeutics, Inc., priority 2014, published 2017):

How the values were obtained:
TLR9 = target: T1, TLR9 (Mus musculus, UniProt Q9EQU3); experiment: In vivo TLR9 knockdown (CpG-DNA challenge, serum cytokines); set-up: species or system mice
T1 construct: endogenous in cells
T1 sequence (Q9EQU3 26-1032): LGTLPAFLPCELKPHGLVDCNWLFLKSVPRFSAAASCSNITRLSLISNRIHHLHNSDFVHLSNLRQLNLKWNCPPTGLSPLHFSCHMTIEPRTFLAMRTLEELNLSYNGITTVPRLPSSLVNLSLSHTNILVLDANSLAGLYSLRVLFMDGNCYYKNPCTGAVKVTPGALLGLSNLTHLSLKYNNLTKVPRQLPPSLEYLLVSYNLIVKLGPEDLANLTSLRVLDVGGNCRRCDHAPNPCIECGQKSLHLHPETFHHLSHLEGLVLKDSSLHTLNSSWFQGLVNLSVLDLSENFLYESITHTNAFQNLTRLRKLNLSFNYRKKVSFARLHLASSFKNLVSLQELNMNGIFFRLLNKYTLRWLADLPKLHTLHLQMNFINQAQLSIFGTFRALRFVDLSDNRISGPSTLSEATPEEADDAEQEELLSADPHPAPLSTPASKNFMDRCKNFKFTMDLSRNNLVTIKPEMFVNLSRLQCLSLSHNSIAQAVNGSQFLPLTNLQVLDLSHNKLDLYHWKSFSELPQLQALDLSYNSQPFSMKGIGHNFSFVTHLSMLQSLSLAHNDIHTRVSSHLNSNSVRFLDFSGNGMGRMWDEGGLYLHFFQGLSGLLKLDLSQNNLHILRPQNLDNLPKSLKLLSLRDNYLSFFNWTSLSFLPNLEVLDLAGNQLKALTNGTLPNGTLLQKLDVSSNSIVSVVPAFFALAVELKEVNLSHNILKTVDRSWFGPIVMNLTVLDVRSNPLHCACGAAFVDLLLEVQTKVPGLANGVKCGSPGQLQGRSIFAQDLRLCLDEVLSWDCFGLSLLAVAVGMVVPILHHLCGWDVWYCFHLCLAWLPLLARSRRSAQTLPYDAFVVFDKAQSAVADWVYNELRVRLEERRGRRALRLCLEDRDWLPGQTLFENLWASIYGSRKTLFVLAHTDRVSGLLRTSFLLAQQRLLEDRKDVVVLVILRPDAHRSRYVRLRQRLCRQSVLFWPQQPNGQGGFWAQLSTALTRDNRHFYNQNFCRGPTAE
Description: Mice were treated with test antagonist at varying doses at T=0 hr. Agonist treatment (CpG-DNA) dosed one hour later, T=1 hr for IP groups and two hours later, T=2 hr for PO groups. Necropsy performed 3 hours post agonist treatment, T=4 hr (IP groups) or T=5 hr (PO groups). Serum cytokines induced by the TLR agonist are measured by ELISA. Groups size per dose, n=3. The mean+/−SD of two independent ELISA's at differing serum dilutions is plotted.

[1] = A-B permeability, CaCo-2 cells (CEREP); assay type: in vitro ADME; conditions: human, pH 6.5/7.4
Description: Preliminary screening measures were conducted by CEREP. All values fall within acceptable limits (Table 5). Solubility assays where performed by CEREP, Seattle, Wash., according to Lipinski, C. A. et al., 1997, Adv. Drug Del. Rev., 46:3-26. Protein binding assays where performed by CEREP, Seattle, Wash., according to Banker, M. J. et al., 2003, J. Pharm. Sci., 92:967-974. Permeability assays where performed by CEREP, Seattle, Wash. according to Hildalgo, I. J., 1998, Gastroenterology, 96:736-749. Metabolic stability assays where performed by CEREP, Seattle, Wash., according to Obach, R. S. et al., 1997, J. Pharmacol. Exp. Ther., 283:46-58. P-glycoprotein inhibition assays where performed by CEREP, Seattle, Wash., according to Polli, J. W. et al., 2001, J. Pharm. Exp. Ther., 299:620-628. Cell viability assays where performed by CEREP, Seattle, Wash., according to Mosmann, T., 1983, J. Immunol. Met. 65:55-62. hERG automated patch clamp assays where performed by CEREP, Seattle, Wash., according to Mathes, C., 2006, Expert Opin. Ther. Targets, 10:230-241.

[2] = target: COMT (catechol-O-methyl transferase) (Sus scrofa, UniProt D3K5L3); experiment: Receptor cross-reactivity enzyme panel (CEREP); assay type: biochemical; conditions: read-out: % Ligand Inhibition, COMT
Source text: The receptor cross-reactivity profile is composed of 71 binding and 27 enzyme assays. The binding assay panel is broadly defined with roughly an equal number of selective, central and peripheral therapeutically relevant targets. The enzyme assay panel includes the most representative targets from diverse enzyme families with a particular focus on phosphatases and specific enzymes involved in cell cycle regulation. Assays where performed by CEREP, Seattle, Wash., with protocols similar to Cordeaux, Y. et al., 2004 Brit. J. Pharmacol., 143:705-714. JB6121 was tested for receptor cross reactivity at 10 μM for approximately 100 receptors and enzymes. Any % inhibition greater than 50% (IC50<10 μM) is highlighted below in Table 7.

Sequence of COMT (catechol-O-methyl transferase) (D3K5L3 entry or part of it): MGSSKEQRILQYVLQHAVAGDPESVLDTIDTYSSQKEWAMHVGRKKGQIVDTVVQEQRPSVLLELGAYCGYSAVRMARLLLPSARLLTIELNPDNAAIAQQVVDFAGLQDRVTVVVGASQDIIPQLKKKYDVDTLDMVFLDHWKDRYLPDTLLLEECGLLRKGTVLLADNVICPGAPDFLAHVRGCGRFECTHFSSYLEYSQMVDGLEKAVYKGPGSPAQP

For CN1CCN(c2nc(NCCN3CCOCC3)c3nc(Cl)c(NCCN4CCOCC4)nc3n2)CC1 [JB6121, 6-chloro-2-(4-methylpiperazin-1-yl)-N^4,N^7-bis(2-morpholinoethyl)pteridine-4,7-diamine], which “ID50, TLR9 knockdown, IP injection” value (TLR9; mice, IP, CpG-DNA 1 h later) is on record?
The value was 55.27 μg injection dose.

What about the “ID50, TLR9 knockdown, PO gavage” value (TLR9; mice, PO, CpG-DNA 2 h later) of the same molecule?
Its value is 59.99 μg delivery dose.

What about the ED50 (TLR9; mouse, translated for a 25 gram mouse, read-out: ID50, TLR9 knockdown) of the same molecule?
The ED50 was roughly 2.4 mg/kg.

What about the Papp A→B [1] of the same molecule?
Its Papp A→B is 1.2 ×10⁻⁶ cm/s.

And the inhibition at 10 µM [2]?
The inhibition at 10 µM was 53.5%.
